Experimental findings from paper PMC9599351 (2022) are described below.

In this assay the test system is RIV aptamer (DNA, aptamer) TAGGGAAGAGAAGGACATATGATGACTCACAACTGGACGAACGTACTTATCCCCCCCAATCACTAGTGAATT
The experiment in a line: square-wave voltammetry aptasensor. The settings on record: K+ 0.01 M (KCl); [Fe(CN)6]3−/4−; concentration tested not stated.
In the case of `N=C(N)NCCC[C@H](N)C(=O)O`, the binding result was “weak”. Turning to `NCC(=O)O`, the binding entry is given as “no”.

With `N[C@@H](CS)C(=O)O`, the binding entry is on record as “weak”. Take `O=C(O)[C@@H]1CCCN1`: the binding entry is reported as “weak”. Take `OC[C@H]1OC(O)[C@H](O)[C@@H](O)[C@@H]1O` (some centres unmarked): the binding entry is reported as “no”.
